Source: patent US10272041B2, “Acid stable liposomal compositions and methods for producing the same” (The Penn State Research Foundation, priority 2013, dated 2019)

Tested on: MDA-MB-231 cells
Assay: Cell viability/cell growth, cells re-treated every 48 hours
Type: cell-based
Details: triple negative breast cancer cells
Method: MDA-MB-231 cells were plated on a 96-well plate at 10,000 cells per well to evaluate the effects of BSA alone, conjugated DHA-BSA, Liposomal DHA, and a ghost liposome on cell viability. The cells were re-treated every 48 hours. […] All treatments were compared to the cell/media control. The ghost had no effect on cell viability.

SMILES: CC/C=C\C/C=C\C/C=C\C/C=C\C/C=C\C/C=C\CCC(=O)O [DHA, Docosahexanoic acid]
- concentration that inhibits cell growth with comparable effect: 25 to 50 µM
